{"source": "patent US20100093824A1", "about": "(priority 2006, published 2010)", "key": {"poliovirus [1]": {"tested_on": "poliovirus", "assay": "microbe, parasite or virus in culture", "type": "cell-based, Poliovirus Mahoney type 1 strain", "conditions": "Enterovirus C, HeLa S3, read-out: inhibition of virus production in vRNA transfected cells"}, "poliovirus [2]": {"tested_on": "poliovirus", "assay": "microbe, parasite or virus in culture", "type": "cell-based, Poliovirus Mahoney type 1 strain", "conditions": "Enterovirus C, HeLa S3, 7 h, read-out: IC50 of inhibition of poliovirus replication"}, "poliovirus [3]": {"tested_on": "poliovirus", "assay": "microbe, parasite or virus in culture", "type": "cell-based, Poliovirus Mahoney type 1 strain", "conditions": "Enterovirus C, Fibroblast, read-out: inhibition of poliovirus replication"}, "capsid precursor P1": {"tested_on": "capsid precursor P1", "type": "cell-based, poliovirus"}, "poliovirus [4]": {"tested_on": "poliovirus", "type": "cell-based"}, "poliovirus [5]": {"tested_on": "poliovirus", "design": "species or system cPVR transgenic mice", "conditions": "mouse, in vivo"}, "[6]": {"conditions": "mouse, in vivo, ip"}, "[7]": {"tested_on": "L protein, the Respiratory Syncytial virus polymerase", "type": "cell-based, RSV, strain A2", "conditions": "Hep-2 cells, 17AAG 5 μM"}}, "note": "Like-named read-outs stand apart in the source and are kept apart here. Non-standard residues stand in square brackets, D forms with d. Residues, ends and D or L forms follow the SMILES beside them. Nle = CCCC[C@H](N)C(=O)O"}
{"compound": "COC1=C2C[C@@H](C)C[C@H](OC)[C@H](O)[C@@H](C)/C=C(\\C)[C@H](OC(N)=O)[C@@H](OC)/C=C\\C=C(/C)C(=O)NC(=CC1=O)C2=O", "note": "[GA, Geldanamycin]", "values": [{"measurement": "inhibition at 2 µM", "setting": "poliovirus [1]", "value": 95, "unit": "%"}, {"measurement": "IC50", "setting": "poliovirus [2]", "value": 110, "unit": "nM"}, {"measurement": "inhibition at 0.1 µM", "setting": "poliovirus [3]", "value": "> 99", "unit": "%"}, {"measurement": "time in which P1 was readily degraded after treatment", "setting": "capsid precursor P1", "value": "≤ 3", "unit": "h"}, {"measurement": "reduction in virus production", "setting": "poliovirus [4]", "value": "~50", "unit": "%"}]}
{"compound": "CCCC[C@@H](C=O)NC(=O)[C@H](CC(C)C)NC(=O)[C@H](CC(C)C)NC(C)=O", "note": "[ALLN, N-Acetyl-L-leucyl-L-leucyl-L-norleucinal] (Ac-Leu-Leu-[Nle]-aldehyde)", "values": [{"measurement": "protection of P1 from GA-induced degradation", "setting": "capsid precursor P1", "value": "protected P1 from degradation"}]}
{"compound": "trichostatin A [TSA]", "values": [{"measurement": "maximal reduction in virus production", "setting": "poliovirus [4]", "value": 30, "unit": "%"}]}
{"compound": "CC(=O)N[C@@H](CSC(=O)[C@]1([C@@H](O)C(C)C)NC(=O)[C@H](C)[C@@H]1O)C(=O)O", "note": "[lactacystin, Lactacystin]", "values": [{"measurement": "protection of P1 from GA-induced degradation", "setting": "capsid precursor P1", "value": "protected P1 from degradation"}]}
{"compound": "C=CCNC1=C2C[C@@H](C)CC(OC)[C@H](O)[C@@H](C)/C=C(\\C)C(OC(N)=O)C(OC)/C=C\\C=C(/C)C(=O)NC(=CC1=O)C2=O", "note": "(stereo partly shown) [17AAG, 17-Allylamino-17-demethoxygeldanamycin]", "values": [{"measurement": "viral load in the CNS", "setting": "poliovirus [5]", "value": "dramatically reduced the viral load"}, {"measurement": "mice with virus decreased to undetectable levels", "setting": "poliovirus [5]; 2.5 mg/kg", "value": "4 of 8"}, {"measurement": "mice with virus decreased to undetectable levels", "setting": "poliovirus [5]; 25 mg/kg", "value": "5 of 8"}, {"measurement": "apparent toxicity to the treated animal", "setting": "[6]", "value": "did not result in any apparent toxicity"}, {"measurement": "effect on RSV L protein", "setting": "[7]", "value": "causes degradation of L protein"}]}
